Earlier results on three molecules are cited in patent US20080214876A1, “Process for Preparation of Pharmaceutically Pure Anhydrous Calcipotriol” (INSTYTUT FARMACEUTYCZNY, priority 2004, published 2008).

Structures are written as SMILES.

In series [1] the test system is calcium metabolism. Conditions: rats; relative to calcitriol; Binderup, Bramm, Biochem. Pharmacol. 37, 889 (1988).
In series [2] the test system is epidermal keratinocytes. Conditions: literature: Castelijins et al., Acta Derm. Venereol. 79, 111 (1999).
The conditions of series [3]: pharmaceutical formulations.

In the case of `C=C1/C(=C\C=C2/CCC[C@]3(C)[C@@H]([C@H](C)/C=C/[C@@H](O)C4CC4)CC[C@@H]23)C[C@@H](O)C[C@@H]1O` [calcipotriol, (1α,3β3,5Z,7E,22E,24S)-24-cyclopropyl-9,10-secochola-5,7,10(19),22-tetraene-1,3,24-triol], the “weaker effect on calcium metabolism compared to calcitriol” value in series [1] is on record as 100-200 fold. Further, the “activity in inhibiting undesirable proliferation of epidermal keratinocytes” value in series [2] was “strong activity”. Further, in series [3], the “stability in some solutions” value is on record as “poor stability”.
With `C=C1/C(=C\C=C2/CCC[C@]3(C)[C@@H]([C@H](C)CCCC(C)(C)O)CC[C@@H]23)C[C@@H](O)C[C@@H]1O` [calcitriol, 1,25-dihydroxycholecalciferol], the “activity in inhibiting undesirable proliferation of epidermal keratinocytes” value in series [2] was “strong activity”.
For `C=C1/C(=C\C=C2/CCC[C@]3(C)[C@@H]([C@H](C)CC[C@@H](O)C(C)C)CC[C@@H]23)C[C@@H](O)C[C@@H]1O` [tacalcitol, 1α,24R-dihydroxycholecalciferol], the “activity in inhibiting undesirable proliferation of epidermal keratinocytes” value in series [2] was “strong activity”.
